Consider 10 molecules from US20240190890A1, “MK2 INHIBITORS AND USES THEREOF” (Bristol-Myers Squibb Company, priority 2022, published 2024).

As a reminder, the IC50 is the point on the concentration scale where inhibition reaches its midpoint.

SMILES strings stand for the structures.

Chain of p38a activated, mitogen-activated protein kinase-activated protein kinase 2 (MAPKAP-K2 or MK2) enzyme (P49137 whole entry): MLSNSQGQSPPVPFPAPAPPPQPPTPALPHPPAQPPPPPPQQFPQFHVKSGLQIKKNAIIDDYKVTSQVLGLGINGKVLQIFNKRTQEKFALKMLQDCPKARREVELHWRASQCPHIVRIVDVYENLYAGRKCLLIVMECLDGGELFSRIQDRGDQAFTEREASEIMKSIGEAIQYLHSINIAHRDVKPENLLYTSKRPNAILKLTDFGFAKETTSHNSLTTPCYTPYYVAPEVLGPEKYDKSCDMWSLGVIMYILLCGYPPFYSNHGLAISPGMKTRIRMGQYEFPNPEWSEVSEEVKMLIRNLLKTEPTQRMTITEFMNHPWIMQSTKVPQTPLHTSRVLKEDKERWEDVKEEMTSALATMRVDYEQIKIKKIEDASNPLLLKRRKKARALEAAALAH

The assay addresses p38a activated, mitogen-activated protein kinase-activated protein kinase 2 (MAPKAP-K2 or MK2) enzyme (Homo sapiens (Human), UniProt P49137). Kind of assay: MK2 Omnia continuous-read kinase assay for compound potency. Format: biochemical. As to conditions: [MK-2]=0.4 nM, [ATP]=10 μM, [ST3-Sox]=10 μM; room temperature. The source says: Mitogen-Activated Protein Kinase-Activated Protein Kinase 2 Omnia® Assay for Compound Potency Assessment:
The protocol below describes a continuous-read kinase assay optimized to measure potency of compounds against p38a activated, mitogen-activated protein kinase-activated protein kinase 2 (MAPKAP-K2 or MK2) enzyme. Further details of this assay are described by Life Technologies, Carlsbad, CA on their website at the following URL: http://tools.lifetechnologies.com/content/sfs/manuals/omnia_kinase_assay_man.pdf. • [Reagent] used: • [MK-2]=0.4 nM, • [ATP]=10 μM and • [ST3-Sox]=10 μM (ATP^appKM=10 μM)
Briefly, 10× stock solutions of MK2 (PV3317, from Life Technologies), 1.13X ATP (AS001A), and Sox conjugated peptide substrate, S/T3-Sox, (KZN1031) were prepared in 1× kinase reaction buffer consisting of 20 mM Tris, pH 7.5, 5 mM MgCl2, 1 mM EGTA, 5 mM β-glycerophosphate, 5% glycerol (10× stock, KB001A) and 0.2 mM DTT (DS001A). Enzyme solution (5 μL) was added to each of DMSO ([…]) or serially diluted test compounds prepared in DMSO in a Corning (#3574) 384-well, white, non-binding surface microtiter plate (Corning, NY). Kinase reactions were started with the addition of 45 μL of the ATP-peptide substrate S/T3-Sox mix and monitored every 71 seconds for 120 minutes at λex360/λem485 in a Synergy H4 plate reader from BioTek (Winooski, VT) at room temperature.
Background signals from the no enzyme control wells were subtracted from all progress curves. The initial linear portions of the net progress curves were fit according to a linear equation to yield the slope and percentage of inhibition (% inhibition) at each compound concentration. The net progress curves obtained during the first two hours of reactions were also fit according to an ascending single-exponential equation (Eq. 1) to yield kobs values at each compound concentration. Plots of % Inhibition versus inhibitor concentrations were fit according to a dose-response equation (Eq. 2) to generate IC50 and Hill slope values while plots of kobs versus inhibitor concentration were fit according to Equation 3 (Eq. 3) to generate apparent kinact/K1 values using the GraphPad PRISM software (Version 6.00; GraphPad San Diego, CA).
where F is the fluorescence intensity from the plate reader, V0 is a constant reflecting the relationship between the instrument readout and product concentration, t is time, e is Euler's number, and kobs is the observed inactivation rate constant.
where % Inhibition is percentage of inhibition, IC50 is half maximal inhibitory concentration, [I] is the inhibitor concentration, and n is the Hill slope.
where kobs is the observed inactivation rate constant, kinact is the apparent inactivation rate constant, K1 is the apparent inhibition constant, and [I] is the inhibitor concentration. […] Potency results for the compounds tested are shown in Table 4 in the column entitled “MK2 IC50.”
As to `C=Cc1cc(-c2ccc3c(ccc4sc5c(c43)NC[C@@H](C)NC5=O)n2)c(CN2CCC(C(F)(F)F)CC2)cn1` [Example I-212, (R)-10-methyl-3-(5-((4-(trifluoromethyl)piperidin-1-yl)methyl)-2-vinylpyridin-4-yl)-9,10,11,12-tetrahydro-8H-[1,4]diazepino[5′,6′:4,5]thieno[3,2-f]quinolin-8-one], the half-inhibitory concentration (IC50) is 92 nM.

For the molecule `C=Cc1cc(-c2ccc3c(ccc4sc5c(c43)NC[C@@H](C)NC5=O)n2)c(CC)cn1` [Example I-195, (R)-3-(5-ethyl-2-vinylpyridin-4-yl)-10-methyl-9,10,11,12-tetrahydro-8H-[1,4]diazepino[5′,6′:4,5]thieno[3,2-f]quinolin-8-one], the IC50 is 13 nM.

On to `C/C=C\c1cc(-c2ccc3c(ccc4sc5c(c43)NC[C@@H](C)NC5=O)n2)nc(COCC)n1` [Example I-36, (R,Z)-3-(2-(ethoxymethyl)-6-(prop-1-en-1-yl)pyrimidin-4-yl)-10-methyl-9,10,11,12-tetrahydro-8H-[1,4]diazepino[5′,6′:4,5]thieno[3,2-f]quinolin-8-one], for which the IC50 was found to be 12 nM.

With `C/C=C\c1ncc(F)c(-c2ccc3c(ccc4sc5c(c43)NC[C@@H](C)NC5=O)n2)n1` [Example I-46, (R,Z)-3-(5-fluoro-2-(prop-1-en-1-yl)pyrimidin-4-yl)-10-methyl-9,10,11,12-tetrahydro-8H-[1,4]diazepino[5′,6′:4,5]thieno[3,2-f]quinolin-8-one], the IC50 turned out to be 765 nM.

As for `C=Cc1nc(CO)cc(-c2ccc3c(ccc4sc5c(c43)NC[C@@H](C)NC5=O)n2)n1` [Example I-85, (R)-3-(6-(hydroxymethyl)-2-vinylpyrimidin-4-yl)-10-methyl-9,10,11,12-tetrahydro-8H-[1,4]diazepino[5′,6′:4,5]thieno[3,2-f]quinolin-8-one], the IC50 is 11 nM.

On to `C=Cc1ncc(COC2(C)CCC2)c(-c2ccc3c(ccc4sc5c(c43)NC[C@@H](C)NC5=O)n2)n1` [Example I-26, (R)-10-methyl-3-(5-((1-methylcyclobutoxy)methyl)-2-vinylpyrimidin-4-yl)-9,10,11,12-tetrahydro-8H-[1,4]diazepino[5′,6′:4,5]thieno[3,2-f]quinolin-8-one], for which the IC50 is 684 nM.

With `[2H]C([2H])([2H])N1CCN(c2cc(-c3ccc4c(ccc5sc6c(c54)NC[C@@H](C)NC6=O)n3)cc(C#C)n2)CC1` [Example I-172, (R)-3-(2-ethynyl-6-(4-(methyl-d3)piperazin-1-yl)pyridin-4-yl)-10-methyl-9,10,11,12-tetrahydro-8H-[1,4]diazepino[5′,6′:4,5]thieno[3,2-f]quinolin-8-one], the IC50 turned out to be 97 nM.

In the case of `C[C@@H]1CNc2c(sc3ccc4nc(-c5cc(Cl)nnc5OCCN5CCOCC5)ccc4c23)C(=O)N1` [Example I-132, (R)-3-(6-chloro-3-(2-morpholinoethoxy)pyridazin-4-yl)-10-methyl-9,10,11,12-tetrahydro-8H-[1,4]diazepino[5′,6′:4,5]thieno[3,2-f]quinolin-8-one], the IC50 worked out at 912 nM.

Consider `C=Cc1ncc(COC2COC2)c(-c2ccc3c(ccc4sc5c(c43)NC[C@@H](C)NC5=O)n2)n1` [Example I-21, (R)-10-methyl-3-(5-((oxetan-3-yloxy)methyl)-2-vinylpyrimidin-4-yl)-9,10,11,12-tetrahydro-8H-[1,4]diazepino[5′,6′:4,5]thieno[3,2-f]quinolin-8-one], for which the IC50 amounted to 24 nM.

Regarding `C=Cc1cc(-c2ccc3c(ccc4sc5c(c43)NC[C@@H](CF)NC5=O)n2)c(C)cn1` [Example I-254, (S)-10-(fluoromethyl)-3-(5-methyl-2-vinylpyridin-4-yl)-9,10,11,12-tetrahydro-8H-[1,4]diazepino[5′,6′:4,5]thieno[3,2-f]quinolin-8-one], the IC50 came to 27 nM.
